The values below come from paper PMC7023222, “Ionic Liquid Forms of the Antimalarial Lumefantrine in Combination with LFCS Type IIIB Lipid-Based Formulations Preferentially Increase Lipid Solubility, In Vitro Solubilization Behavior and In Vivo Exposure” (Pharmaceutics, 2019).

“And” between values parts separate entries of the source, which are not always exact repeats. Equal entries are not always repeated. Where two headings read alike, the source gives them in different places. Bounds are passed on as bounds.

On the set-up of data set [1]: method as in PMID 30376336. To be noted: cited from earlier work.
The conditions of data set [2]: cited from earlier work.
Details of data set [3]: method as in PMID 23531442. The conditions noted are these: cited from earlier work.
How the values of data set [4] were obtained:
Equilibrium Solubility Studies. […] Each equilibrium solubility experiment was completed in triplicate. Equilibrium solubility was defined when solubility measured across two consecutive days varied less than 5%. The samples were allowed to equilibrate at 37 °C and were vortex-mixed twice a day to ensure the compounds were well dispersed in the LBF. The samples were left to equilibrate for at least 3 days. […] At each time point, samples were then centrifuged at 37 °C (14,800 rpm (21,000× g), Thermo Scientific, Heraeus Pico 21 Centrifuge) and aliquots of 20 mg were taken from the supernatant and dissolved in 1 mL of chloroform: methanol (2:1, v/v). The chloroform: methanol solution was then diluted 20-fold with water: acetonitrile (1:1, v/v). The samples were then assayed by HPLC to determine the concentration of compound in formulation.

Data set [5] in a line: In vitro dispersion and digestion test of LBFs (drug solubilization). The conditions noted are these: for % of drug present in the aqueous phase compared to total drug loading: end of digestion phase (60 min), loading 80% of equilibrium solubility, n = 3. In kind it is physicochemical. On the procedure:
In Vitro Drug Solubilization. […] Drug loading in each formulation was at 80% of the equilibrium solubility of the drug or API-IL in that formulation to maintain a consistent thermodynamic activity across all LBFs. In vitro dispersion and digestion experiments were conducted using a pH-stat apparatus (Metrohm® AG, Herisau, Switzerland), which comprised a Titrando 802 propeller stirrer/804 Ti Stand combination, a glass pH electrode (iUnitrode), and two 800 Dosino dosing units coupled to 10 mL autoburettes (Metrohm® AG). The pH-stat was connected to a PC and operated via Tiamo 2.0 software (Metrohm®). […] The pancreatic enzyme was prepared by mixing 1 g of porcine pancreatin with 5 mL of lipolysis buffer and 20 µL of 5 M NaOH. After mixing, this was then centrifuged at 2880× g at 5 °C for 10 min (Crown Scientific, Eppendorf AG Centrifuge 5804 R, Sydney Australia) and the supernatant used as the enzyme solution. The lipolysis buffer was prepared by dissolving 0.474 g of tris maleate, 0.206 g of CaCl2·H2O, and 8.775 g of NaCl in one liter of distilled water to form a 2 mM tris maleate 1.4 mM CaCl2·H2O 150 mM NaCl buffer; the pH was adjusted to 6.5 using NaOH. The micellar solution was prepared by dissolving 0.783 g of NaTDC and 0.291 g of PC in 500 mL of lipolysis buffer to form a 3 mM NaTDC 0.75 mM PC solution. […] This drop in pH was detected by the pH-stat controller, which then titrated the FA produced using an autoburette that added NaOH to keep the pH at a set point (0.6 M NaOH for MCFs, and 0.2 M NaOH for LCFs). By knowing the quantity of NaOH added and assuming stoichiometric titration, this indirectly quantified the extent of FA production (as a measure of digestion). […] The mass of the drug recovered in the aqueous phase and the pellet phase was then quantified by HPLC [35, 36]. The supernatant and pellet samples were diluted with acetonitrile (1:10 v/v) and then mobile phase (1:10 v/v), and lumefantrine concentrations in the samples determined using HPLC [35, 36, 37, 38].

The nature of data set [6]: Supersaturation during in vitro dispersion/digestion testing. Format: physicochemical. The conditions noted are these: for maximum supersaturation ratio SR^Mdisp (APmax/APdigest): dispersion, time 0 min; for maximum supersaturation ratio SR^Mdig (APmax/APdigest): end of digestion, 60 min. On the procedure: Supersaturation During In Vitro Testing. The degree of supersaturation of drug concentrations in the aqueous phase during formulation dispersion/digestion was assessed by comparing the measured aqueous phase concentration to equilibrium drug solubility in blank aqueous phase obtained by dispersion and digestion of blank (i.e., non-drug loaded) formulation under identical conditions. Due to the physical state of lumefantrine docusate (i.e., an amorphous semi-solid), the equilibrium solubility assessment was conducted by dissolving 3 mg of IL in 10 µL of ethanol in a microcentrifuge tube and then adding 200 mg of aqueous phase obtained from the blank digestions (n = 3 for each time point for each formulation). The contents were subsequently vortex-mixed for 30 s. […] Supersaturation was assessed at 4 time points during the in vitro dispersion and digestion tests (0 min (end dispersion), and 5, 30, and 60 min (post digestion)) for the Type II-MC, IIIB-MC, IIIB-LC, and IV formulations.
The supersaturation ratio (SR) provides an indication of thermodynamic activity and the likelihood of either drug precipitation, or enhanced absorption from an LBF, where the higher the number, the more supersaturated and therefore the more likely to precipitate during in vitro digestion. The maximum supersaturation ratio (SR^M) provides a measure of the maximum supersaturation pressure that would be generated by digestion of an LBF, assuming no precipitation and is calculated from the following:(1) SR^M=APmax/APdigest where APmax is the maximum possible aqueous phase concentration of drug during the in vitro dispersion and digestion test (i.e., in the absence of any precipitation), and APdigest is the equilibrium solubility of the drug in blank aqueous phase (i.e., where the aqueous phase was obtained from a digestion of blank LBF). Williams et al. have previously proposed that sustainable supersaturation most commonly occurs when SR^M < 3, and that exceeding this threshold increases the likelihood of drug precipitation during in vitro dispersion and digestion tests. Only the Type II-MC, IIIB-MC, IIIB-LC, and IV formulations were evaluated as these were the four formulations chosen to proceed to the in vivo bioavailability studies. The figures also depict APmax, as well as the drug solubility in the aqueous colloidal phase of the blank LBF (APdigest). […] This was most apparent at early time points for the Type II-MCF formulation where SR^M was ~20 and at later time points post digestion for the Type IIIB-MCF where SR^M was >40. […] Similarly, the SR^M for the Type IIIB-MCF at the end of digestion was the highest, but majority of lumefantrine docusate remained solubilized at 60 min (69% solubilized).

Data set [7] in a line: Oral bioavailability study in rats. In kind it is in vivo, male Sprague-Dawley rats.
Description: Oral Bioavailability Studies. […] Experiments were conducted in fasted male Sprague-Dawley rats (240–320 g). The day prior to the study, the rats were anaesthetized with isoflurane and the right carotid artery was surgically cannulated with polyethylene tubing to facilitate blood collection (procedure described previously) [40]. Animals were allowed to recover overnight and were fasted up to 12 h prior to and 8 h after dose administration, with water provided ad libitum. The rats were fed 8 h after dosing.
Animals were then administered a further 0.5 mL of water. […] The aqueous suspension comprised 0.5% w/v sodium carboxymethylcellulose, 0.4% w/v Tween 80, and 0.9% NaCl in water.
Blood samples were collected via the carotid artery cannula at pre-dose, 0.5, 1, 2, 3, 4, 6, 8, 10, and 24 h after oral administration of the formulations. Blood samples were centrifuged at 6700× g for 5 min and plasma was collected and stored at −20 °C until assayed by LC-MS. Statistically significant differences between formulations were determined by one-way analysis of variance (ANOVA) at a test significance level of α ≤ 0.05, followed by a Tukey’s multiple comparisons test.
Plasma Sample Preparation and Analysis. Lumefantrine concentrations in rat plasma were assayed via LC-MS using a modification of a previously published assay for lumefantrine [41]. […] Plasma samples or calibration standards (50 µL) were spiked with 10 µL of internal standard (halofantrine hydrochloride, 1000 ng/mL in 1:1 v/v water: acetonitrile) followed by vortex mixing for 10 s. To precipitate plasma proteins, acetonitrile (200 µL) was added and samples vortex mixed for 1 min. The samples were then allowed to stand at room temperature for 30 min. After centrifugation at 10,000× g for 10 min at room temperature, 150 µL of supernatant was transferred into vials for analysis.
Lumefantrine plasma samples were analyzed using a Shimadzu LCMS-8050 system (Shimadzu Scientific Instruments, Kyoto, Japan) consisting of a CBM-20A system controller, a DGU-20A5R degassing unit, two Nexera X2 LC-30 AD liquid chromatograph pumps, a Nexera X2 SIL-30AC autosampler, a CTO-20A column oven (held at 40 °C), and a triple quadrupole mass spectrometer with an electrospray ionization (ESI) interface. Data acquisition and processing was performed using LC-MS Solutions software (Shimadzu, Kyoto, Japan). The desolvation line (DL) and heat block were kept at 250 °C and 400 °C, respectively. The nebulizing gas flow and drying gas flow rates were 3.0 L/min and 10.0 L/min, respectively. Mobile phase A was Milli-Q water containing 0.1% w/v formic acid, and mobile phase B was acetonitrile containing 0.1% w/v formic acid. […] Mobile phase B was then held at 80% for 0.5 min, followed by a linear decrease to 30% over the next 0.5 min after which conditions were held for another 0.5 min.

For `CCCCC(CC)COC(=O)CC(C(=O)OCC(CC)CCCC)S(=O)(=O)O.COc1cc2nccc(Oc3ccc(NC(=O)C4(C(=O)Nc5ccc(F)cc5)CC4)cc3)c2cc1OC` [Cabozantinib docusate, cabozantinib docusate], the figures for the “bioavailability, fold enhanced compared to an aqueous suspension of cabozantinib free base” value in data set [1] (long-chain SEDDS) and in data set [1] (medium-chain SEDDS) were 1.8 fold and 1.5 fold, respectively.
As to `C(=C\c1ccccc1)/CN1CCN(C(c2ccccc2)c2ccccc2)CC1.CCCCCCCCCCOS(=O)(=O)O` [cinnarizine decyl sulfate], the “exposure, fold higher than equivalent dose of cinnarizine free base as a suspension in the same SEDDS formulation” value in data set [2] (rats, SEDDS formulation) is ~ 2 fold.
Take `CCCCN(CCCC)CC(O)c1cc(Cl)cc2c1-c1ccc(Cl)cc1/C2=C/c1ccc(Cl)cc1` (stereo not shown) [lumefantrine]: the oral bioavailability in data set [3] is reported as 4–11%.
With `CCCCC(CC)COC(=O)CC(C(=O)OCC(CC)CCCC)S(=O)(=O)O.CCCCN(CCCC)CC(O)c1cc(Cl)cc2c1-c1ccc(Cl)cc1C2=Cc1ccc(Cl)cc1` (racemic) [lumefantrine docusate], in data set [4], the “miscibility in the Type IV formulation” value is recorded as “miscible”. In addition, the “solubility in LBF, fold higher than lumefantrine free base” value in data set [4] is given as 2- to 80 fold. For the same compound, in data set [4], the “solubility in the Type IV formulation (proportions)” value is > 1:1 w/w. Also, the figures for the “% of drug present in the aqueous phase compared to total drug loading” value in data set [5] (Type IIIB-LCF) and in data set [5] (Type IIIB-MCF) were 89% and 69%, respectively. Besides, in data set [5] (after dispersion and digestion, range over all LBFs), the “drug concentration in the aqueous phase, fold higher than the equivalent lumefantrine free base formulations” value is 2-to-55 fold. Besides, the “maximum supersaturation ratio SR^Mdisp (APmax/APdigest)” value is ~ 20 and 19.9 in data set [6] (Type II-MCF); 3.6 in data set [6] (Type IIIB-LCF); 5.7 in data set [6] (Type IIIB-MCF); 6.3 in data set [6] (Type IV). Moreover, in data set [6] (Type II-MCF, during dispersion), the “supersaturation ratio SR (measured aqueous phase concentration / equilibrium solubility in blank aqueous phase)” value is 5.5. Moreover, the “maximum supersaturation ratio SR^Mdig (APmax/APdigest)” value is 8.0 in data set [6] (Type II-MCF); 7.9 in data set [6] (Type IIIB-LCF); > 40 and 43.2 in data set [6] (Type IIIB-MCF); 8.1 in data set [6] (Type IV). Besides, the “supersaturation throughout the in vitro test” value in data set [6] (Type IV formulation) is recorded as “no supersaturation was evident”. The “maximum supersaturation ratio SR^M” value in data set [6] (in all cases: Type II-MC, IIIB-MC, IIIB-LC and IV formulations) is “higher than 3”. Also, in data set [7] (IL in LBF vs free base suspensions 85 mg/kg), the “exposure, fold enhanced when compared to the free base” value is recorded as “up to 50 fold”. Also, the “increase in exposure after oral administration compared to aqueous suspension of the free base” value in data set [7] (Type IIIB LC formulation 65 mg/kg vs aqueous suspension 85 mg/kg) is given as ~ 50 fold. Also, the “increase in exposure after oral administration compared to lipid suspension of the free base” value in data set [7] (Type IIIB LC formulation 65 mg/kg vs free base suspension in Type IIIB-LCF 85 mg/kg) is reported as ~ 10 fold. Besides, the “systemic exposure (AUC 0 to 24 h), statistical comparison” value in data set [7] (Type IIIB-LCF 65 mg/kg, one-way ANOVA, p < 0.05, n = 4) is “significantly higher exposure than all other formulations tested”. In addition, the “systemic exposure (AUC 0 to 24 h), statistical comparison with both free base suspensions” value in data set [7] (Type IIIB-MCF 65 mg/kg, one-way ANOVA, p < 0.05, n = 4) was “significantly higher exposure”.
For `CCC(C)n1ncn(-c2ccc(N3CCN(c4ccc(OCC5COC(Cn6cncn6)(c6ccc(Cl)cc6Cl)O5)cc4)CC3)cc2)c1=O.CCCCC(CC)COC(=O)CC(C(=O)OCC(CC)CCCC)S(=O)(=O)O` (stereo not shown) [itraconazole docusate], in data set [2] (rat, in vivo), the “exposure compared with the commercial formulation Sporanox” value is “greater exposure” and the “exposure, fold higher than an itraconazole suspension of equal dose” value was ~ 20 fold.
